# From US6387955B1, “Enhanced anti-angiogenic activity of permanently charged derivatives of steroid hormones” (Pharmos Corporation, priority 1997, dated 2002)
# Columns and labels:
# MCF-7 tumors [1] = test: Growth of MCF-7 tumors implanted in ventral fat pad of nude mice, tumor size by MRI; assay type: in vivo; details: TMI pellet 6.3 mg 45-day release, 25 day time course
# Description: Female CD1-nu/nu athymic mice (6 weeks old) were obtained from the Weizmann Institute Department of Animal Services. MCF-7 cells, serially passed as described above, were detached from the culturing flasks with 0.03% EDTA in phosphate buffered saline (PBS) and washed several times in normal saline. Cells (10^7/innoculum) were then injected into the ventral fat pad at the level of the breast. Coincident with cell introduction, a slow-release pellet of estradiol (0.72 mg/pellet, 45-day release profile; Innovative Research, Sarasota, Fla.) was implanted subcutaneously in the flank of the animal. Mice were anesthetized with ketamine/Rompun (i.p.) for the surgical procedures. […] At this point, animals were randomized into four study groups. In the first, the estrogen pellet was removed and replaced with a slow-release TMI-laden pellet (6.3 mg, 45-day release) (n=5). In the second group, the estrogen pellet was removed and replaced with a tamoxifen pellet (n=7). The third group was treated with a blank (placebo) pellet (n=5), while the fourth group was reimplanted with an estradiol pellet (n=4). TMI and placebo-treated animals were imaged (under ketamine/Rompun anesthesia) either immediately before pellet exchange (day 0) or at day 3, 6, 12 and 25 after pellet exchange.
# MRI images were recorded with a Bruker 4.7 (tesla)/30 Biospec spectrometer (Bruker Medizintechnik, Rheinstetten, Germany). 1H Spin-echo images were recorded at 200.12 MHz using a custom-made 4.5 cm rf coil with an image data matrix of 256×128 pixels. Pilot scans of the tumors were completed using a fast transverse multi-slice spin-echo sequence (giving T1-weighted spectra; inter-echo time (TE)=16 msec, recovery time (TR)=500 msec) followed by T2-weighted sequences in which axial slices perpendicular to the spine (i.e., a coronal orientation) were recorded. In the latter case, spin-echo images were obtained using a 4 cm field of view, 1 mm slice thickness, 1.2 mm slice-to-slice distance and a four-sequence average. The TE and TR were optimized to provide the best image contrast generating values of 80 and 3200 msec, respectively. This gave a total imaging time of approximately 30 min. […] Tumor size was calculated using a slice-to-slice reconstruction in which the slice surface area was obtained from histograms provided by the resident Bruker software package using the following relationship: […]
# where XSA is the cross-sectional area of an internal slice, ES is the cross-sectional area of an edge slice, l is the slice thickness and ssd is the distance from the middle of one slice to the middle of the next. For image analysis, the average pixel intensity of viable portions of MCF-7 tumors was determined from a central tumor slice using histograms generated by the dedicated Bruker software package. […]
# MCF-7 tumors [2] = test: Capillary density in MCF-7 tumor sections by microscopic morphometry; assay type: in vivo, nude mice; details: viable regions only
# Description: Tumors from TMI-treated animals and from placebo-treated animals were removed after cervical dislocation. Tumors were treated with a biological dye (Davidson Marking Systems, Bradley Products, Bloomington, Minn.) so that histological sections could be oriented in the same direction as MRI slice images. The histological plane corresponding to the central slice of the MRI study was established by a single cut through the tumor. This plane was based on the position of the tumor in the spectrometer, sagittal, transverse and coronal images and anatomical landmarks. The bisected tumors were fixed in 10% formalin, dehydrated in 70% ethanol, blocked in paraffin. 4 μm histological sections were cut, placed on slides and stained with either hematoxylin-eosin or a modified trichrome method. Hematoxylin-eosin was used to assess viability, necrosis and pigmentation. The modified trichrome method was applied to the identification of fibrotic regions (i.e., the dye stains for mucopolysaccharides).
# Vascular density was determined using two techniques: by morphometric analysis of histological sections and by image analysis of GSL-1 lectin stained sections. […] In each field, the number of grid squares containing capillaries, as defined by either the presence of red blood cells or a distinct endothelial cell, were recorded. […]
structure (smiles),measurement,setting,value
"CC/C(=C(\c1ccccc1)c1ccc(OCC[N+](C)(C)C)cc1)c1ccccc1 [TMI, Tamoxifen methiodide]",tumor regression (average shrinking),MCF-7 tumors [1],20%
same,reduction in capillary area compared with the placebo,MCF-7 tumors [2],50%
